pEC50: −log10 of the molar value.
Experiments:
[1] = Plasma protein binding, equilibrium dialysis (rat); assay type: in vitro ADME; conditions: pH 7.4, read-out: fu,plasma
Procedure: page 5: Drug Metabolism Methods: In vitro Plasma protein binding and Brain homogenate binding: Determination of fraction unbound (f u) in plasma was conducted in vitro via equilibrium dialysis using HTDialysis (HTD) membrane plates. The top half of the plate was filled with 100 uL of Dubelco’s Phosphate Buffered Saline, pH 7.4 (DPBS). Compounds were diluted into plasma from each species (5 µM final concentration), which was aliquoted in triplicate to the ‘bottom half’ of the prepared HTD plate wells. The HTD plate was sealed and incubated for 6 hours at 37 °C. Following incubation, each well (both top and bottom halves) were transferred (20 µL) to the corresponding wells of a 96- shallow-well (V-bottom) plate. The daughter plates were then matrix-matched (DPBS side wells received equal volume of plasma, and plasma side wells received equal volume of DPBS), and extraction solution (120 µL; acetonitrile containing 50 nM carbamazepine as IS) was added to all wells of both daughter plates to precipitate protein and extract test article. The plates were then sealed and centrifuged (3500 rcf) for 10 minutes at ambient temperature. Supernatant (60 µL) from each well of the daughter plates was then transferred to the corresponding wells of new daughter plates (96-shallow-well, V bottom) containing water (Milli-Q, 60 µL/well), and the plates were sealed in preparation for LC-MS/MS analysis (see LC-MS/MS analysis method below). The unbound fraction (f u) was calculated following the equation below, and mean values for each species were calculated from 3 replicates. […] Fraction unbound for both plasma and brain samples was determined using Equation 4. f = Concbuffer u Concplasma Equation 4 Determination of fraction unbound in plasma. […]

rM2-5 = experiment: Muscarinic selectivity, rat M2-5; assay type: cell-based
recognition memory = experiment: Novel object recognition (NOR) test; assay type: in vivo, rat; conditions: PO; for minimum effective dose (MED) in NOR: male Sprague-Dawley rats, 3 given 2 h, 5 given 1 h before exposure, memory assessed 24 h later; for effect on recognition memory in NOR: rats, 3 at 1, 3, 10 mg/kg, 5 at 0.3, 1, 3 mg/kg
Procedure: Figure 4 Novel object recognition (NOR) test in rats with M1 PAMs 3 and 5. […] Minimum effective dose (MED) is 10 mg/kg. […] Minimum effective dose (MED) is 1 mg/kg. N = 13–18/group of male Sprague-Dawley rats. Analysis of variance (ANOVA) *p < 0.05; **p < 0.01 Dunnett posthoc test.
Rats were habituated for 10 min for 2 consecutive days in an empty novel object recognition (NOR) arena consisting of dark-colored plexiglass box (40 × 64 × 33 cm3). On day 3 rats were administered vehicle, M1 PAM 3 (1-10 mg/kg, p.o.., 10 mL/kg, n = 13-18), or M 1 PAM 5 (0.3-3 mg/kg, p.o.., 10 mL/kg, n = 16-18) and returned to their home cage for 60 min (M 1 PAM 5) or 2 hr (M1 PAM 3. Rats were then placed in the NOR arena containing two identical objects for 10 min. Following the exposure period, rats were placed back into their home cages for 24 h. The rats were then returned to the arena in which one of the previously exposed (familiar) objects was replaced by a novel object and were video recorded for 5 min while they explored the two objects.
Time spent exploring each object was scored by an observer blinded to the experimental conditions and the recognition index was calculated as [(time spent exploring novel object) – (time spent exploring familiar object)]/total time exploring objects. […]
C18, 2.1 x 30 mm, 2.6 um. Gradient conditions: 7% to 95% CH3CN in H2O (0.1% TFA) over 1.6

hM2-5 = experiment: Muscarinic selectivity, human M2-5 calcium mobilization; assay type: cell-based
Procedure: Procedures for Biological Experiments
Calcium mobilization assays:
All functional cell-based assays were performed in stable Chinese Hamster Ovary (CHO) cell lines constitutively expressing human M5 or human M1 receptors. For full muscarinic selectivity, CHO cells expressing human M3, human M2 plus Gqi5 or human M4 plus Gqi5 were used. Cells were plated at 15,000 cells per 20 µL per well in black 384-well, TC-treated, clear-bottomed plates (Greiner) in Ham’s F12 medium supplemented with 10% FBS and 20 mM HEPES. Cells were incubated overnight at 37 °C under 5% CO2. […] The compound plate, cell plate, and plates containing EC20 and EC80 acetylcholine concentrations were placed in a Hamamatsu FDSS 6000 or 7000 kinetic imaging plate reader equipped to measure Ex480/Em540 fluorescence. […] After 2 seconds of collecting baseline fluorescence, 20 µL of the compound solutions were added to the cell plate. […] The fluorescence signal was collected for a total of 300 seconds. […] Data were imported and analyzed in Dotmatics Informatics software. by normalizing all data in the individual kinetic traces to the initial fluorescence read. The magnitude of each agonist addition was then determined and normalized to the average maximum response. […] The IC50 determined using the EC80 of acetylcholine is the value reported. […]

[2] = In vivo IV/PO pharmacokinetics, NHP; conditions: NHP (cyno), dose iv/po mg/kg: 1 1/3, 5 1/5; for clearance / Vd / half-life: cynomolgus monkey, plasma, 1 mg/kg; for clearance: read-out: CLp; for Vd: read-out: Vss; for half-life: read-out: elimination t1/2 (converted)
[3] = In vivo IV/PO pharmacokinetics, dog; parameters: species or system dog (beagle or mongrel); conditions: for clearance / Vd / half-life: beagle or mongrel, plasma, 1 mg/kg; for clearance: dose iv/po mg/kg: 1 1/3, 5 1/5, read-out: CLp; for Vd: dose iv/po mg/kg: 1 1/3, 5 1/5, read-out: Vss; for half-life: dose iv/po mg/kg: 1 1/3, 5 1/5, read-out: elimination t1/2 (converted); for F (%) po: dose iv/po mg/kg: 1 1/3, 5 1/5
GABAA, Muscimol, Central = experiment: Eurofins radioligand binding; parameters: species or system Rat

[2H]C1([2H])c2ncccc2C(=O)N1Cc1c(F)cc(-c2cccc3nn(C)cc23)cc1F [compound 3]
fraction unbound at 6 h, 5 µM [1]: 0.034 | pEC50 (rM2-5): < 4.52 | minimum effective dose (MED) in NOR (recognition memory): 10 mg/kg | effect on recognition memory in NOR (recognition memory): dose-dependently enhanced the recognition memory | pEC50 (hM2-5): < 4.52

[2H]C1([2H])c2ncccc2C(=O)N1Cc1c(F)cc(-c2cccc3nn(C([2H])([2H])[2H])cc23)cc1F [compound 5]
F (%) po [2]: 64% | clearance [2]: 4 mL/min/kg | Vd [2]: 1.1 L/kg | half-life [2]: 4.6 h | clearance [3]: 2.6 mL/min/kg | Vd [3]: 2 L/kg | half-life [3]: 10 h | F (%) po [3]: 85% | % Inhibition at 10 µM (GABAA, Muscimol, Central): 0% | fraction unbound at 6 h, 5 µM [1]: 0.026 | pEC50 (rM2-5): < 4.52 | minimum effective dose (MED) in NOR (recognition memory): 1 mg/kg | effect on recognition memory in NOR (recognition memory): dose-dependently enhanced recognition memory | pEC50 (hM2-5): < 4.52

Cn1cc2c(-c3cc(F)c(CN4Cc5ncccc5C4=O)c(F)c3)cccc2n1 [compound 1]
F (%) po [2]: 59% | clearance [2]: 3.3 mL/min/kg | Vd [2]: 0.9 L/kg | half-life [2]: 4.3 h | clearance [3]: 4 mL/min/kg | Vd [3]: 2.1 L/kg | half-life [3]: 7.5 h | F (%) po [3]: 100% | fraction unbound at 6 h, 5 µM [1]: 0.028

Source: publication PMC12006963, “Application of Deuterium in an M1 Positive Allosteric Modulator Back-Up Program: The Discovery of VU6045422” (ACS Chemical Neuroscience, 2025)
